Consider 1 molecule from patent US20080081814A1, “Carbonyl Compounds Which Can be Used as Inhibitors of Coagulation Factor Xa” (priority 2004, published 2008).

In the assay the target is factor Xa (Homo sapiens, UniProt P00742). Briefly: Factor Xa inhibition (FXa-IC50). In kind it is biochemical. From the text: The inhibition of factor Xa by the compounds according to the invention and the measurement of the anticoagulant and antithrombotic activity can be determined by conventional in-vitro or in-vivo methods. A suitable method is described, for example, by J. Hauptmann et al. in Thrombosis and Haemostasis 1990, 63, 220-223.
factor Xa, sequence (P00742 235-488 limits assumed): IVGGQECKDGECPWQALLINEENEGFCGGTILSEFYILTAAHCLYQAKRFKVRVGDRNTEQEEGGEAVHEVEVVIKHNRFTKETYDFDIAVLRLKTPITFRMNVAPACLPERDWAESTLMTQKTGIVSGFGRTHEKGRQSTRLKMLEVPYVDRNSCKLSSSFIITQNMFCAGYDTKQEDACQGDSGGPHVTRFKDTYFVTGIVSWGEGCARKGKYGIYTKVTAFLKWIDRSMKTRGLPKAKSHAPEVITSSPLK
factor Xa, sequence (P00742 41-179 partner limits assumed): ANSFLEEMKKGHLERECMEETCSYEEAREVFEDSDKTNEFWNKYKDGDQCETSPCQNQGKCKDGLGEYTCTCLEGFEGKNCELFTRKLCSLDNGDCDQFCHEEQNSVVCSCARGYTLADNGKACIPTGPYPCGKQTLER
The inhibition of factor Xa can be measured, for example by the method of T. Hara et al. in Thromb. Haemostas. 1994, 71, 314-319.

As usually defined, the IC50 is the midpoint of a concentration-inhibition curve. Read a low IC50 as higher potency. The molecule `CCOC(=O)O[C@@H]1C[C@H](C(=O)Nc2ccc(N3CCOCC3=O)cc2)N(C(=O)Nc2ccc(Cl)cc2)C1` [Compound A1, N-1-(4-chlorophenyl)-4-(ethoxycarbonyloxy)-N-2-[4-(3-oxomorpholin-4-yl)phenyl)-(2R,4R)-pyrrolidine-1,2-dicarboxamide] displayed an IC50 of 2 nM.
